# Results as given in patent publication US4398937A, “Selective algaecides for control of cyanochloronta” (The University of Southern Mississippi, priority 1981, dated 1983).
# Experiments:
# [1] = tested on: zooplankton; test: Field Experiment II, catfish pond, zooplankton; type: in vivo; conditions: 2 ppm
# [2] = tested on: blue-green algae; test: Field Experiment II, catfish pond, blue-green algae; type: in vivo, blue-green algae (Oscillatoria and Microcystis); conditions: 2 ppm
# [3] = tested on: Lyngbya; test: Selective effect on algae in test tubes (Table V), Lyngbya; type: cell-based; conditions: for cells/ml: 13 days after innoculation, average of 3 samples
# Method: (§1) Another laboratory experiment was run to further substantiate the selective effect of one of the algaecides, potassium ricinoleate. Two species of blue-green algae, Lyngbya and Cylindrospermum, and three species of green algae, Chlorella, Haematococcus and Stigeoclonium and Tribonema, a yellow-green alga of the division Chrysophycophyta, were treated as follows: Twenty ml test tubes of sterile BBM culture solution were innoculated with each alga. All species of algae were evaluated with three groups, control, 2.5 ppm algaecide and 7.5 ppm algaecide. Each group was run with triplicate samples.
# (§2) Controls were counted 6 days after innoculation, algaecide was added to the treatment groups seven days after innoculation and all test tubes were counted thirteen days after innoculation. The results are shown in Table V. After seven days, there was a 31% reduction in the Lyngbya cultures at 2.5 ppm algaecide and a 40% reduction at 7.5 ppm. After seven days, there was a 60% reduction in Cylindrospermum cultures at 2.5 ppm algaecide and a 72% reduction at 7.5 ppm. […] After thirteen days, there was a 55% reduction in numbers at both 2.5 ppm and 7.5 ppm. After twenty days there was a 27% reduction at both concentrations. […] They are, like blue-green algae, often associated with taste and odor problems.
# [4] = tested on: Cylindrospermum; test: Selective effect on algae in test tubes (Table V), Cylindrospermum; type: cell-based; conditions: for cells/ml: 13 days after innoculation, average of 3 samples
# Method: as §1, §2
# [5] = tested on: blue-green algae; test: Field Experiment I, catfish pond, blue-green algae; type: in vivo, blue-green algae (mainly Microcystis sp.); conditions: 10 ppm
# Method: (§3) 1, 1980, to Mar. 19, 1981.
# (§4) On July 30, 1980, most ponds had numbers of blue-green algae exceeding 2×10^6 cells/liter. These algae were predominantly Oscillatoria,Microcystis and Anacystis with smaller numbers of Nostoc, Anabaena and Lyngbya. The experimental pond had 1.2×10^6 cells/liter composed mainly of Microcystis sp. Large numbers of copepods and rotifers were present. On July 30, the pond was treated with 10 ppm potassium ricinoleate by distributing a 30% aqueous solution evenly through the water column by pump from a small boat. […] This is further substantiated by the dry weights and chlorophyll a levels.
# [6] = tested on: Zooplankton; test: Field Experiment I, catfish pond, zooplankton; type: in vivo, copepods and rotifers; conditions: 10 ppm
# Method: as §3, §4
# [7] = tested on: catfish fingerlings; test: Toxicity to catfish fingerlings in aquaria; type: in vivo
# Method: For any algaecide to be useful in aquaculture, it must be without harmful effects on fish populations in ponds to be treated. Experiments to determine the effects of potassium ricinoleate on fish were performed in two 250 gallon aquaria using various concentrations of the algaecide. Batches of 25 live 5 in. catfish fingerlings were treated with 5, 10, 15, 20, 30, 35 and 100 ppm algaecide and observed for 48 hours.
# [8] = tested on: blue-green algae; test: Field Experiment III, pond, blue-green algae; type: in vivo, blue-green algae (Oscillatoria and Microcystis); conditions: 2 ppm on 6/9/81
# Method: (§5) In Field Experiment III, a small two acre pond was monitored for a complete year for plankton organisms as before. Oscillatoria and Microcystis were usually the prevalent blue-green algae. On 6/9/81 the pond was experiencing a bloom consisting completely of Oscillatoria. Channel catfish from the ponds had the characteristic earthy, musty taste and odor of 4 and 4 respectively on the 0 to 5 scale. The pond was treated on this date with 2 ppm potassium ricinoleate, one of the selective algaecides, as before.
# [9] = tested on: Haematococcus; test: Selective effect on algae in test tubes (Table V), Haematococcus; type: cell-based; conditions: for cells/ml: 13 days after innoculation, average of 3 samples
# Method: as §1, §2
# [10] = in vivo
# [11] = Field Experiment I, total organism dry weight; type: in vivo; conditions: 10 ppm
# Method: as §3, §4
# [12] = tested on: Chlorella; test: Selective effect on algae in test tubes (Table V), Chlorella; type: cell-based; conditions: for cells/ml: 13 days after innoculation, average of 3 samples
# Method: as §1, §2
# [13] = tested on: Channel catfish; test: Field Experiment III, taste and odor of channel catfish; type: in vivo; conditions: 2 ppm on 6/9/81; June 22
# Method: as §5
# [14] = tested on: Fish (adult catfish); test: Field Experiment II, taste and odor of fish; type: in vivo; conditions: for Fish Odor / Fish Taste: 2 ppm on 5/26/81
# [15] = tested on: Stigeoclonium; test: Selective effect on algae in test tubes (Table V), Stigeoclonium; type: cell-based; conditions: for cells/ml: 13 days after innoculation, average of 3 samples
# Method: as §1, §2
# [16] = tested on: juvenile channel catfish
# [17] = 168 h, read-out: reduction in cultures
# [18] = 7/31 post-treatment (treated July 30, 1980)
# [19] = 11/21 post-treatment (normal winter reduction)
# [20] = 2.5 and 7.5 ppm, after seven days
# [21] = scale 0 to 5 (5 worst, 0 undetectable), 6/1/81
compound,measurement,setting,value
CCCCCC[C@@H](O)C/C=C\CCCCCCCC(=O)[O-].[K+],Zoo #'s/liter,"[1]; 5/26/81 B post-treat, 4 p.m., Deep",755 #'s/liter
same,Zoo #'s/liter,"[1]; 5/26/81 C post-treat, 4 p.m., Shallow",2270 #'s/liter
same,Zoo #'s/liter,"[1]; 5/27/81 D, 9:40 p.m., Deep",0 #'s/liter
same,Zoo #'s/liter,"[1]; 5/27/81 E, 9:40 p.m., Shallow",1510 #'s/liter
same,Zoo #'s/liter,"[1]; 5/28/81 F, 7 a.m.",756 #'s/liter
same,Zoo #'s/liter,"[1]; 5/28/81 G, 11 a.m.",2270 #'s/liter
same,zooplankton after treatment,"[1]; through June, 1981",remained unchanged
same,Cells/liter bluegreen algae,"[2]; 5/26/81 B post-treat, 4 p.m., Deep, prevalent Mic",4.2 × 10^5 Cells/liter
same,Cells/liter bluegreen algae,"[2]; 5/26/81 C post-treat, 4 p.m., Shallow, prevalent Ped",0 Cells/liter
same,Cells/liter bluegreen algae,"[2]; 5/27/81 D, 9:40 p.m., Deep, prevalent Ped",1.18 × 10^4 Cells/liter
same,Cells/liter bluegreen algae,"[2]; 5/27/81 E, 9:40 p.m., Shallow, prevalent Ped",0 Cells/liter
same,Cells/liter bluegreen algae,"[2]; 5/28/81 F, 7 a.m., prevalent Ped",5.9 × 10^3 Cells/liter
same,Cells/liter bluegreen algae,"[2]; 5/28/81 G, 11 a.m., prevalent Ped",0 Cells/liter
same,blue-green algae after treatment,[2]; after two days,essentially no blue-green algae present
same,cells/ml,[3]; 2.5 ppm,2340 cells/ml
same,cells/ml,[3]; 7.5 ppm,2010 cells/ml
same,inhibition of growth at 2.5 ppm,[3]; [17],31%
same,inhibition of growth at 7.5 ppm,[3]; [17],40%
same,cells/ml,[4]; 2.5 ppm,2500 cells/ml
same,cells/ml,[4]; 7.5 ppm,1770 cells/ml
same,inhibition of growth at 2.5 ppm,[4]; [17],60%
same,inhibition of growth at 7.5 ppm,[4]; [17],72%
same,Cells/Liter of bluegreen algae,[5]; [18],3.2 × 10^5 Cells/Liter
same,Cells/Liter of bluegreen algae,[5]; 8/1 post-treatment,1.8 × 10^5 Cells/Liter
same,Cells/Liter of bluegreen algae,[5]; 8/6 post-treatment,1.0 × 10^5 Cells/Liter
same,Cells/Liter of bluegreen algae,[5]; 8/19 post-treatment,5.4 × 10^5 Cells/Liter
same,Cells/Liter of bluegreen algae,[5]; 9/6 post-treatment,3.8 × 10^5 Cells/Liter
same,Cells/Liter of bluegreen algae,[5]; 9/23 post-treatment,1.9 × 10^6 Cells/Liter
same,Cells/Liter of bluegreen algae,[5]; [19],0 Cells/Liter
same,Cells/Liter of bluegreen algae,[5]; 12/14 post-treatment,3.0 × 10^4 Cells/Liter
same,blue-green algae killed,[5]; seven days after treatment,93%
same,Zooplankton #/Liter,[6]; [18],2531 #/Liter
same,Zooplankton #/Liter,[6]; 8/1 post-treatment,2500 #/Liter
same,Zooplankton #/Liter,[6]; 8/6 post-treatment,4050 #/Liter
same,Zooplankton #/Liter,[6]; 8/19 post-treatment,2025 #/Liter
same,Zooplankton #/Liter,[6]; 9/6 post-treatment,4050 #/Liter
same,Zooplankton #/Liter,[6]; 9/23 post-treatment,506 #/Liter
same,Zooplankton #/Liter,[6]; [19],1012 #/Liter
same,Zooplankton #/Liter,[6]; 12/14 post-treatment,1518 #/Liter
same,numbers of zooplankton,[6]; seven days after treatment,essentially unchanged or increased in numbers
same,fish survival,"[7]; 35 ppm and lower, observed for 48 hours",All fish survived
same,fish mortality,"[7]; 100 ppm, at 12 hours",All fish had died
same,Cells/liter bluegreen algae,"[8]; 6/10/81, prevalent Osc, Mic",2.8 × 10^6 Cells/liter
same,Cells/liter bluegreen algae,"[8]; 6/12/81, prevalent Osc",1.3 × 10^6 Cells/liter
same,Cells/liter bluegreen algae,"[8]; 6/22/81, prevalent Ped",1.2 × 10^4 Cells/liter
same,predominant alga after treatment,[8]; June 22,Pediastrum with isolated fragments of Oscillatoria filaments
same,effect,[9]; [20],stimulated
same,cells/ml,[9]; 2.5 ppm,23000 cells/ml
same,cells/ml,[9]; 7.5 ppm,52000 cells/ml
same,oxygen depletion problems,[10],no oxygen depletion problems noted
same,Dry Wgts,[11]; [18],2.19 Gm/Liter
same,Dry Wgts,[11]; 8/1 post-treatment,4.45 Gm/Liter
same,Dry Wgts,[11]; 8/6 post-treatment,17.90 Gm/Liter
same,Dry Wgts,[11]; 8/19 post-treatment,5.34 Gm/Liter
same,Dry Wgts,[11]; 9/6 post-treatment,20.69 Gm/Liter
same,Dry Wgts,[11]; 9/23 post-treatment,9.06 Gm/Liter
same,Dry Wgts,[11]; [19],1.03 Gm/Liter
same,Dry Wgts,[11]; 12/14 post-treatment,4.84 Gm/Liter
same,effect,[12]; [20],slightly inhibited
same,cells/ml,[12]; 2.5 ppm,44000 cells/ml
same,cells/ml,[12]; 7.5 ppm,49000 cells/ml
same,"earthy, musty taste and odor of sample fish",[13],"lost all of the earthy, musty taste and odor"
same,Fish Odor,[14]; [21],2
same,Fish Taste,[14]; [21],3
same,Fish Odor,"[14]; scale 0 to 5, 6/5/81",1
same,Fish Taste,"[14]; scale 0 to 5, 6/5/81",2
same,Fish Odor,"[14]; scale 0 to 5, 6/12/81",1
same,Fish Taste,"[14]; scale 0 to 5, 6/12/81",1
same,Fish Odor,"[14]; scale 0 to 5, 6/15/81",0
same,Fish Taste,"[14]; scale 0 to 5, 6/15/81",0
same,earthy musty taste and odor of fish,"[14]; 2 ppm, over a three week period",eliminated
same,effect,[15]; [20],remained unchanged
same,cells/ml,[15]; 2.5 ppm,1900 cells/ml
same,cells/ml,[15]; 7.5 ppm,1900 cells/ml
same,taste or odor of cooked fish,"[16]; 10 ppm, samples February through June, 1981",no taste or odor problems
same,health of juvenile catfish,[16]; in vivo,fed and otherwise appeared healthy
